Assay results published in publication PMC3359661, “FK228 Analogues Induce Fetal Hemoglobin in Human Erythroid Progenitors” (Anemia, 2012).

Columns and labels:
[1] = test system: γ-globin promoter activity in KU812-γF/βR stable lines; test: KU812 dual-luciferase reporter stable lines (μLCRβprRluc AγprFluc), γ-globin promoter activity; assay type: cell-based, human; conditions: 48 hr; for Fold change (γ/γ + 2β): untreated normalized to one
Excerpt: KU812 stable cell lines were created by co-transfecting wild-type KU812 cells with pEGFP-NI (G418 selectable marker) and theμLCRβ prRluc ^A γ prFluc dual-reporter a kind gifts from Dr. George Stamatoyannopoulos (University of Washington). […] Likewise, 1.4 kb of human Aγ-globin promoter was inserted upstream of firefly luciferase to create ^A γ prFluc. The μLCR (locus control region), Pβ prRluc, and ^A γ prFluc fragments were subsequently cloned into the mammalian vector, pRL-null.
After 72 hr, G418 was added at a concentration of […] for 3 days then maintained under selection pressure indefinitely at a concentration of […]. KU812 stable lines were treated with the various drugs at the same concentrations described above. FK228 and analogues were screened at concentrations between 1–1000 nM for 48 hr and cell toxicity was monitored by 2% Trypan blue exclusion. The effect of drug treatments on γ-globin and β-globin promoter activity was monitored by luciferase assay.
Luciferase activity was monitored under the different experimental conditions using the Dual Luciferase Assay Reporter System (Promega, Madison, WI). The activity of firefly luciferase represents γ-globin promoter activity (γF), while the renilla luciferase is the read-out for β-globin promoter activity (βR). The β-globin promoter was strategically cloned between the LCR and γ-globin promoter to increase β expression, while simultaneously increasing the sensitivity of detection of γ-globin gene inducers.
After drug treatments, KU812 stable cells were washed with 1X phosphate buffered saline and lysed in 1X Passive Lysis Buffer for 15 min, then protein extracts were added to the Luciferase Assay Reagent II and firefly luciferase activity quantified in a Turner Designs TD-20/20 luminometer (Sunnyvale, CA). To measure βR activity, Stop & Glo Reagents was added to measure the renilla luciferase activity. Total protein was determined by Bradford assay on a Beckman DU 640 spectrophotometer (Chaska, MN) and luciferase activity was corrected for total protein.
Subsequently, three independent dual-luciferase reporter KU812 stable cell lines were established to analyze the ability FK228 analogues to induce γ-globin promoter activity without an effect on β-globin transcription. […] Since the firefly luciferase gene (γF) has approximately […] luminescence than the renilla gene (βR), the renilla activity was multiplied by two to adjust for the difference in luminescence yielding the γ/γ+2β final measurement. The FK228 analogues were examined at concentrations ranging from 1–1000 nM in the three stable lines. After 48-hour treatments, cells were harvested and protein isolated for luciferase activity using the Dual Luciferase Reporter Assay.

[2] = test system: HbF levels in primary erythroid cells; test: HbF ELISA in primary erythroid cells; assay type: cell-based, human; conditions: for Fold change in HbF levels: relative to untreated = 1, concentrations as in E7; for Fetal hemoglobin quantification, Mean (HbF/total Hb/total protein): treated Day 11, harvested Day 14, conc: Cys 10 mM, Hemin 50 μM, SAHA 2000 nM, FK228 1.5 nM, JMA1 1.5 nM, JMA2 1.0 nM, JMA26 500 nM, JMA33 1000 nM, untreated 0.683
Procedure: (§1) The two-phase liquid culture system was established as previously published by Fibach et al. using buffy coat mononuclear cells, purchased from Carter Blood Care (Fort Worth, TX) in accordance with the guidelines of the Institutional Review Board at the University of Texas at Dallas. During phase 1, cells were grown in IMDM medium with 30% fetal bovine serum and 50 ng/mL each of the granulocyte-monocyte colony-stimulating factor, Interleukin-3, and stem cell factor. Subsequently, phase 2 was initiated on day 7 with the addition of erythropoietin (2 U/mL) and stem cell factor (50 ng/mL). The cells were treated on Day 11 with the different test compounds and harvested on Day 14 (72 hr incubation).
Total hemoglobin was quantified using 20 μL of protein extract from one million KU812 cells mixed with 5 mL of Drabkin's reagent (Sigma); then cyanmethemoglobin was measured at the 540 nm wavelength. HbF levels were quantified using the human Hemoglobin F ELISA Quantitation Kit (Bethyl Laboratory, Montgomery, TX). Briefly, 96-well plates were coated with sheep anti-human HbF antibody (1 mg/mL). After blocking with 1% bovine serum albumin, horse radish peroxidase-conjugated secondary antibody (1 mg/mL) was added. Raw data were analyzed using GraphPad PRISM (GraphPad Software, Inc., La Jolla, CA) and HbF levels were calculated as a ratio of total hemoglobin corrected for total protein (HbF/total Hb/total protein).

[3] = test system: HbF-positive primary erythroid progenitors; test: Anti-HbF FITC immunostaining of primary erythroid progenitors; assay type: cell-based, human; conditions: anti-HbF FITC / DAPI, 500 cells counted; 15.5% HbF-positive at baseline in untreated cells
Procedure: as §1
Primary erythroid progenitor cytospin cell preparations were fixed with 4% paraformaldehyde in phosphate buffered saline for 15 min, washed, and then permeabilized with 0.3% Trition-100 solution for 10 min. Cells were then blocked in a 5% bovine serum albumin solution and immunostaining performed at 4°C overnight with anti-HbF fluorescein isothiocyanate (FITC) conjugated antibody (Bethyl Laboratories Inc., TX). Cell nuclei were stained with mounting medium containing 4′,6-diamidino-2-phenylindole (DAPI; Santa Cruz Biotechnology, CA). Primary cells were photographed with an Olympus BX 51 phase contrast epifluorescent microscope equipped with Hoffman Modulation optics. Phase-contrast images were recorded with a CCD camera (1/100 sec exposure) and fluorescence images were photographed through 485/520 nm emission filter. The percent of HbF positive cells was calculated by dividing the number of FITC positive cells by total cells (DAPI positive).
(§2) Figure 3 JMA33 and JMA26 induce HbF in primary erythroid cells. (a) Day 11 erythroid progenitors were treated for 48 hr with the controls agents and the FK228 analogues shown and then analyzed by RT-qPCR. Untreated cells (UT) were used as a control and normalized to one. Data were calculated as the means ± SEM. […] The images generated were used to count 500 DAPI positive cells and the %FITC positive cells were calculated accordingly.

[4] = test system: HDAC activity in HeLa cells; test: HDAC Fluorescent Activity Assay (Fluor de Lys) in HeLa cells; assay type: cell-based, human; conditions: TSA 0.5 to 1000 nM; HeLa cells, Fluor de Lys substrate, fluorescence 440 nm
Procedure: The HDAC Fluorescent Activity Assay (Enzo Life Science, Farmingdale, NY) was used to measure HDAC inhibition in HeLa cells in a 96-well format using Trichostatin A as the positive control per the manufacturer's protocol. This assay is based on the Fluor de Lys (Fluorogenic Histone Deacetylase Lysyl (FDL)) Substrate/Developer. The procedure was as follows: the test compounds FK228, JMA26, and JMA33 were added to HeLa cells along with the FDL substrate to allow intracellular drug activation then fluorescence levels were read on the fluorometer at 440 nm (CytoFluor II, PerSeptive Biosystems, Farmingdale, NY). The drug concentrations tested were based on the amount required for HbF induction in primary cells. Data was reported as the mean ± standard deviation (SD) for at least five replicates.
To ascertain the mechanism of HbF induction by the lead compounds, we performed an in vivo assay to investigate the ability of JMA26 and JMA33 to act as HDAC inhibitors. The HDAC Fluorescent Activity Assay designed to measure HDAC activity in HeLa cells was completed in a 96-well format. The assay is based on the fact that the Fluor de Lys substrate is deacetylated by HDACs to generate a fluorescent readout. TSA (0.5 to 1000 nM) was used to establish the assay in HeLa cells, showing about 80% HDAC inhibition in our system (Figure 4(a)).
Figure 4 HDAC inhibition assay. The HDAC Fluorescent Activity Assay was used to measure HDAC inhibition in HeLa cells (See Section 2). Compounds and FDL substrate were added to HeLa cells to allow drug activation in vivo then fluorescence levels were quantified on the fluorometer at 440 nm. (a) Trichostatin A (TSA) was used as the control. (b) Inhibition studies were conducted for FK228 showing maximal HDAC inhibition at the 300 nM concentration. (c) Similar studies were performed for JMA33 and JMA26. The data are reported as the means ± SEM.

sickle-cell patients = conditions: sickle cell patients treated with hydroxyurea; cited from earlier work
Excerpt: Several classes of pharmacological compounds that reactivate γ-globin gene transcription have been identified. They include cytotoxic agents, DNA methyl transferase, and histone deacetylase (HDAC) inhibitors. Cytotoxic compounds terminate actively cycling progenitors and perturb cellular growth to trigger rapid erythroid regeneration and γ-globin gene activation. S-stage cytotoxic drugs, such as cytosine arabinoside, myleran, vinblastine, and hydroxyurea, induce HbF production in primates and humans. The Multicenter Study of Hydroxyurea established ...

[5] = test system: γ-globin gene transcription in KU812 cells; test: RT-qPCR of γ/β-globin mRNA in wild type KU812 cells; assay type: cell-based, human; conditions: 48 hr, Hem 50 μM, NaB 2 mM, SAHA 2 μM, FK228 1.5 nM, Cys 10 mM, untreated normalized to one, range over the drugs
Procedure: Human KU812 leukemia cells were grown in Iscove's Modified Dulbecco's medium (IMDM) (Invitrogen, Carlsbad, CA) with 10% fetal bovine serum (Atlanta Biologicals, Atlanta, GA), penicillin (100 U/mL), and streptomycin (0.1 mg/mL). The cells were incubated at 37°C with 5% CO2. Cell count and viability were determined using a hemocytometer and 2% Trypan blue exclusion. Inductions were performed with one million cells treated for 48 hr with the following drugs purchased from Sigma (St Louis, MO): 50 μM Hem (hemin), 2 mM NaB (sodium buytrate), 0.5 μM TSA, 10 mM Cys (cysteine), 1.5 nM FK228, and 100 μM HU (hydroxyurea). […] Inc. (Whitehouse Station, NJ).
Total RNA was isolated from samples using RNA Stat-60 (TEL-TEST “B” Inc., Friendswood, TX) and used for RT-qPCR analysis as previously published. […] The globin mRNA levels were calculated as a ratio of GAPDH (γ/GAPDH, β/GAPDH), and the γ/β-globin mRNA ratio was calculated by dividing γ/GAPDH by β/GAPDH. […]
Figure 2 Known HbF inducers activate γ-globin expression in KU812 cells. […] Cells were treated for 48 hr with the different drug inducers and γ-globin and β-globin gene transcription were measured by RT-qPCR (see Section 2). […] Data were calculated as the means ± standard error of the mean (SEM); *P < 0.05 and **P < 0.01. […]

[6] = test system: γ-globin transcription in primary erythroid progenitors; test: RT-qPCR of γ-globin mRNA in primary erythroid progenitors (two-phase liquid culture); assay type: cell-based, human; conditions: Day 11 erythroid progenitors treated 48 hr (Figure 3 legend), untreated normalized to one
Procedure: as §1
Total RNA was isolated from samples using RNA Stat-60 (TEL-TEST “B” Inc., Friendswood, TX) and used for RT-qPCR analysis as previously published. […] The globin mRNA levels were calculated as a ratio of GAPDH (γ/GAPDH, β/GAPDH), and the γ/β-globin mRNA ratio was calculated by dividing γ/GAPDH by β/GAPDH.
as §2, with “Untreated cells (UT) were used as a control and normalized to one.” left out

[7] = Line 1, firefly (γ) / renilla (β) luciferase corrected for total protein, mean, conc: Cys 10 mM, Hemin 50 μM, SAHA 2000 nM, FK228 1.5 nM, 1127Ox 1000 nM, JMA1 1.5 nM, JMA2 1.0 nM, JMA12 1000 nM, JMA26 500 nM, JMA33 1000 nM, JMA112 100 nM, untreated 0.0402
[8] = Line 1, concentrations as in E1
[9] = Line 2, concentrations as in E1, untreated 0.1573
[10] = Line 2, concentrations as in E1
[11] = Line 3, concentrations as in E1, untreated 0.0721
[12] = Line 3, concentrations as in E1

Molecule | γ/γ + 2β Mean [1, 7] | Fold change (γ/γ + 2β) [1, 8] | γ/γ + 2β Mean [1, 9] | Fold change (γ/γ + 2β) [1, 10] | γ/γ + 2β Mean [1, 11] | Fold change (γ/γ + 2β) [1, 12] | Fold change in HbF levels [2] [fold] | Fetal hemoglobin quantification, Mean (HbF/total Hb/total protein) [2] | increase in HbF-positive cells [3] [fold] | HDAC inhibition [4] | non-response rate (sickle-cell patients) [%] | increase in the γ/β-globin mRNA levels [5] | induction of γ-globin transcription at the mRNA level [6] [fold]
hemin | 0.1732 | 4.325 | 0.6593 | 4.261 | 0.2508 | 3.486 | 2.218 | 1.515 | 3.0 | – | – | – | –
CC(/C=C/C(=O)NO)=C\[C@@H](C)C(=O)c1ccc(N(C)C)cc1 [TSA, Trichostatin A] | – | – | – | – | – | – | – | – | – | about 80% | – | – | –
NC(=O)NO [hydroxyurea] | – | – | – | – | – | – | – | – | – | – | 30 | – | –
N[C@@H](CS)C(=O)O [Cys, cysteine] | 0.0388 | 0.950 | 0.1200 | 0.764 | 0.0860 | 1.194 | 1.079 | 0.737 | – | – | – | not induced | –
O=C(CCCCCCC(=O)Nc1ccccc1)NO [SAHA, suberoylanilide hydroxamic acid] | 0.2157 | 5.400 | 0.6500 | 4.140 | 0.2520 | 3.500 | 1.602 | 1.094 | 3.2 | – | – | – | ≤ 3.2
